# Source: patent US20040175763A1, “Crohn's disease antibody-binding peptide and method of examining crohn's disease” (priority 2001, published 2004)
# No end group written: not given here.
# Columns and labels:
# [1] = system: Crohn's disease antibody (serum IgG); assay: MAP peptide ELISA of CDP-1a, CDP-5a and VATE-201 (Example 4); type: binding, human; conditions: 20 Crohn's disease, 20 ulcerative colitis, 20 healthy volunteer serum samples
# From the text: Therefore, the following peptides (CDP-1a peptide, CDP-5a peptide, VATE-201 peptide) were respectively synthesized in the MAP form (multiple antigenic peptides) by the same procedure as described in Example 1(3) (FIG. 9), and in accordance with the protocol of Example 2(1), the reactivity of each MAP peptide to various serum samples (Crohn's disease patient sera, ulcerative colitis patient sera and healthy volunteer sera) was investigated by ELISA.
# As test sera, 20 Crohn's disease patient serum samples were used and, as control sera, 20 ulcerative colitis serum samples and 20 healthy volunteer serum samples were used.
# [2] = system: Crohn's disease antibody (serum antibodies); assay: MAP antigen-ELISA of TO3965 peptide (Example 7(4)); type: binding, human; conditions: for reactions with ulcerative colitis patient sera and healthy volunteer sera: 20 ulcerative colitis, 20 healthy volunteer serum samples
# Protocol: At this junction, in order to endorse the assumption that rice allergen proteins are proteins simulated or mimicked by CDP4 peptide, a peptide (TO3965 peptide) having an amino acid sequence corresponding to the 99-111 amino acid region of Rice seed allergen RA14 (FIG. 16) was prepared in the form of a MAP peptide and the MAP antigen-ELISA was performed using 20 Crohn's disease patient serum samples, 20 ulcerative colitis patient serum samples, and 20 healthy volunteer serum samples.
# Except that a MAP antigen plate prepared by immobilizing the MAP peptide of TO3965 on the plate was used as the antigen plate, the MAP antigen-ELISA was carried out in otherwise the same manner as in Example 6(4).
# [3] = system: Crohn's disease antibody; assay: Reaction inhibition test with one amino acid-substituted MAP peptides on CDP3 MAP plate (Example 6(2)); type: binding, human; conditions: inhibitor MAP peptide 100 μg/mL
# Protocol: Referring to the amino acid sequence of CDP peptide, in order to determine the sequence necessary for the specific reactivity to Crohn's disease antibody, the following reaction inhibition test was performed using each of the one amino acid-substituted MAP peptides prepared as above as the reaction inhibitor.
# More particularly, using the MAP plate prepared by immobilizing the MAP peptide of CDP3 (see Example 2(1)) as the antigen plate, the test was performed by 3 reaction steps. In the primary reaction, the Crohn's disease patient serum was diluted 100-fold with a sample diluent containing the one amino acid-substituted MAP peptide in a concentration of 100 μg/mL (0.1 M Tris-buffer containing 0.5 M sodium chloride, 1.5% casein, 2% normal goat serum and 0.2% Tween 20) and reacted at 25° C. for one hour. In the secondary reaction, 100 μL/well of the primary reaction mixture was added to the plate and reacted at 25° C. for one hour, after which the plate was washed 3 times. In the tertiary reaction, 100 μL/well of HRP-labeled anti-human IgG (Fc)-specific antibody diluted 5,000-fold in an enzyme-labeled antibody diluent (Tris buffer containing 0.14 M sodium chloride, 0.5% BAS, 5% normal goat serum and 0.05% Tween 20) was added to the plate, and reacted at 25° C. for 1 hour, followed by 3 rounds of washing. Detection was performed as in Example 2(1) to measure the reaction-inhibiting activity of the one amino acid-substituted MAP peptide.
# [4] = system: Crohn's disease antibody (serum antibodies); assay: MAP antigen-ELISA of Z300 peptide (Example 6(4)); type: binding, human
# Protocol: Therefore, in order to confirm that human nuclear protein (HZF300) is a protein simulated or mimicked by CDP3 peptide, the peptide (Z300 peptide) having the amino acid sequence of the 126-138 amino acid region of HZF300 was prepared in the form of a MAP peptide and the MAP antigen ELISA was carried out using 20 Crohn's disease patient serum samples, 20 ulcerative colitis patient serum samples, and 20 healthy volunteer serum samples.
# First, each human serum was diluted 101-fold with the sample diluent (described hereinbefore) and 100 μL/well of the solution was added to the MAP plate prepared by immobilizing the said MAP peptide. Then, the procedure of the secondary reaction and subsequent operation described in Example 6(2) was followed to investigate the reactivity of the MAP peptide to various kinds of serum antibodies.
# [5] = system: Crohn's disease antibody; assay: Test for inhibition of the antigen-antibody reaction between CDP4 peptide and Crohn's disease antibody using TO3965 peptide (Example 7(5)); type: binding, human; conditions: sera Nos. 3, 6, 15, 17 and 20
# Protocol: To confirm the reactivity of TO3965 peptide to Crohn's disease antibody, a test for inhibition of the antigen-antibody reaction between CDP4 peptide and Crohn's disease antibody was performed using TO3965 peptide as a reaction inhibitor as in Example 6(5).
# [6] = system: Crohn's disease patient serum antibody; assay: Phage ELISA of CD-binding peptide display phage clones with serum samples; set-up: species or system human; conditions: 20 Crohn's disease, 20 ulcerative colitis, 20 healthy volunteer serum samples
# Protocol: Using the monoclonal CD-binding peptide display phage obtained as above, phage ELISA was carried out with the same healthy volunteer serum pool and Crohn's disease patient serum pool as used in the above biopanning (cf. (i)).
# In the ELISA, an anti-phage antibody (Pharmacia) was immobilized on a 96-well microtiter plate in the first place. Specifically, this immobilization was carried out by adding an anti-phage antibody (Pharmacia) solution prepared in a 1 μg/ml concentration with (D)-PBS, to the plate, 100 μl per well. The plate was left sitting at 4° C. overnight and then washed, and after addition of 300 μl of blocking solution ((D)-PBS containing 1% BSA and 5% sorbitol), further left sitting at 4° C. overnight.
# The primary reaction was carried out as follows. Thus, 10 μl of the phage solution in (ii) was added to 90 μl of phage ELISA buffer ((D)-PBS containing 1% BSA, 0.05% Tween 20 and 10% normal goat serum), the mixture was added to each well coated with said anti-phage antibody, and the reaction was conducted at 37° C. for 1 hour. After completion of the primary reaction, the plate was washed 4 times and the secondary reaction was carried out. The secondary reaction was performed by adding the mixture containing 1 μl of serum (healthy volunteer serum or Crohn's disease patient serum) and 100 μl of phage ELISA buffer, to each well, and allowing the reaction to proceed at 37° C. for 1 hour. After completion of the secondary reaction, the plate was washed 4 times and the tertiary reaction was carried out. The tertiary reaction was conducted by adding HRP (horseradish peroxidase)-labeled anti-human IgG (Fc)-specific antibody, diluted 40,000-fold in phage ELISA buffer (20 ng/ml) in advance, to the plate, 100 μl per well, and allowing the reaction to proceed at 37° C. for one hour. After completion of the tertiary reaction, the plate was washed and a color development reaction was carried out. The color development was conducted by adding TMB (3,3′,5,5′-tetramethylbenzidine) solution to the plate, allowing the reaction to proceed at room temperature for 10 minutes, and stopping the reaction with a stopper (1N sulfuric acid). The plate after reaction stopping was measured for absorbance (OD 450 nm) with a plate reader to evaluate the reactivity with the serum antibody.
# For the 5 clones thus selected, the reactivity (ELISA) with the respective serum samples (Crohn's disease patient serum, ulcerative colitis patient serum, and healthy volunteer serum) was evaluated.
# [7] = system: Crohn's disease antibody; assay: Test for inhibition of the antigen-antibody reaction between CDP-1a peptide and Crohn's disease antibody (Example 5); type: binding, human; conditions: sera No. 8, No. 9, No. 14; reaction inhibitor 100 μg/ml
# Protocol: To confirm the reactivity of VATE-201 obtained in Example 4, a test for inhibition of the antigen-antibody reaction between CDP-1a peptide and Crohn's disease antibody was carried out using VATE-201 peptide.
# More particularly, the MAP plate prepared by immobilizing CDP-1a MAP peptide was used as the antigen plate (see Example 2(1)). On the other hand, 1 μL of each serum sample was added to 100 μL of a casein solution ((D)-PBS containing 0.1% casein and 1% Triton X-100) containing the MAP peptide of VATE-201 (reaction inhibitor) at a concentration of 100 μg/ml and the reaction was carried out at 37° C. for one hour. The whole amount of the reaction mixture thus obtained was added to the above MAP plate and ELISA was performed in the same manner as in Example 2(1). As a comparative experiment, using the MAP peptide of CDP-1a in lieu of the MAP peptide of VATE-201 as said reaction inhibitor, ELISA was carried out in otherwise the same manner.
# [8] = system: Crohn's disease antibody; assay: Test for inhibition of the antigen-antibody reaction between CDP3 peptide and Crohn's disease antibody using Z300 peptide (Example 6(5)); type: binding, human; conditions: sera No. 2, No. 7, No. 8; inhibitor 100 μg/ml
# Protocol: To verify the reactivity of Z300 peptide to Crohn's disease antibodies, a test for inhibition of the antigen-antibody reaction between CDP3 peptide and Crohn's disease antibody was performed using Z300 peptide.
# More particularly, the MAP plate prepared by immobilizing the MAP peptide of CDP3 on a plate (Example 2(1)) was used. To 100 μL of the sample diluent containing 100 μg/ml of Z300 MAP peptide (reaction inhibitor) was added 1 μL of the serum sample and the reaction was carried out at 25° C. for one hour. The whole amount of this reaction mixture was added to the plate and ELISA was performed in the same manner as in Example 6(2). As a comparative experiment, ELISA was similarly performed using the MAP peptide of CDP3, in lieu of the MAP peptide of Z300, as said reaction inhibitor.
# [9] = biological target: Crohn's disease patient serum No. 2 (serum antibody); assay: inhibition ELISA; serum pre-incubated with 100 ug/mL MAP peptide, then CDP3 MAP plate; grade of reaction-inhibiting activity
# [10] = biological target: Crohn's disease patient serum No. 8 (serum antibody); assay: as above
# [11] = biological target: Crohn's disease patient serum No. 7 (serum antibody); assay: as above
molecule,measurement,setting,value
AEGELGLLAQQMDYADP [CDP-1a],ELISA reactivity to serum samples,[1],ELISA reactivities mutually alike
"CDP4: equivalent of CD4 peptide, SEQ ID NO:34 (AEGELGGIYQDLVS; Phage Library)",reactions with ulcerative colitis patient sera and healthy volunteer sera,[2],did not show definite reactions
same,reactivity of Crohn's disease patient sera to the peptide,"[2]; Crohn's disease patient serum Nos. 3, 6, 15, 17 and 20",strong reactivity
A E G E L R Q S D G Q Y Q M (AEGELRQSDGQYQM) [CDP3],"reaction-inhibiting activity, Patient serum sample No. 2",[3],+++ (+++: reaction-inhibiting activity = 70%)
same,"reaction-inhibiting activity, Patient serum sample No. 7",[3],+++ (+++: reaction-inhibiting activity = 70%)
same,"reaction-inhibiting activity, Patient serum sample No. 8",[3],+++ (+++: reaction-inhibiting activity = 70%)
same,reactivity of Crohn's disease patient sera to the peptide,"[4]; Crohn's disease patient serum No. 2, No. 7 and No. 8",strong reactivity
"TO3965: peptide with the amino acid sequence of the 99-111 amino acid region of Rice seed allergen RA14, SEQ ID NO:42 (HMVGGIYRELGAT; Rice; Rice Seel Allergen RA14)",reactions with ulcerative colitis patient sera and healthy volunteer sera,[2],did not show definite reactions
same,inhibition of the reactivity of Crohn's disease patient serum samples to the CDP4 MAP plate,[5],inhibition everything of the reactivity
AEGEL GLLAQQMDY ADPA [CD-1],specificity to Crohn's disease patient serum (phage ELISA reactivity),[6],high specificity to Crohn's disease patient serum
RLDLIAQQMMPEVR [VATE-201],ELISA reactivity to serum samples,[1],ELISA reactivities mutually alike
same,inhibition of the reactivity of Crohn's disease serum samples with the CDP-1a MAP plate,[7],invariably inhibited the reactivity
"Z300: peptide having the amino acid sequence of the 126-138 amino acid region of HZF300, SEQ ID NO:31 (LVCQGDGQLQRFL; Kruppel-like Zinc Finger Protein 300; listed as Homo sapiens)",inhibition of the reactivity of Crohn's disease patient sera to the CDP3 MAP plate,[8],inhibited the reactivity of all Crohn's disease patient sera
same,reactions with ulcerative colitis patient sera and healthy volunteer sera,"[4]; 20 ulcerative colitis, 20 healthy volunteer serum samples",did not show definite reactions
AEGELRLVGQQVMQGDP [CDP-5a],ELISA reactivity to serum samples,[1],ELISA reactivities mutually alike
AEGEL RLVGQQVMQ GDPA [CD-5],specificity to Crohn's disease patient serum (phage ELISA reactivity),[6],high specificity to Crohn's disease patient serum
AEGELRQSDAQYQM (also: MAP: 8 copies as branches on a lysine core) [MAP peptide of CDP3-10],reaction-inhibiting activity,[9],30 to 50%
AEGELRQSDGQYAM (also: MAP: 8 copies as branches on a lysine core) [MAP peptide of CDP3-13],reaction-inhibiting activity,[10],50 to 70%
same,reaction-inhibiting activity,[9],30 to 50%
AEGELRQSDGAYQM (also: MAP: 8 copies as branches on a lysine core) [MAP peptide of CDP3-11],reaction-inhibiting activity,[11],30 to 50%
AEGELRQSAGQYQM (also: MAP: 8 copies as branches on a lysine core) [MAP peptide of CDP3-9],reaction-inhibiting activity,[11],30 to 50%
